Data taken from US6949648B2, “Condensed pyrazole derivatives, process for producing the same and use thereof” (Takeda Pharmaceutical Company Limited, priority 2000, dated 2005).
Read-outs that look alike come from different tables or passages of the source. Marks after values point to notes of the source that are not given here.

How the values were obtained:
human COX-2 = biological target: T1, human COX-2 (Homo sapiens, UniProt P35354); experiment: Determination of COX-2 inhibitory activity (microsome fraction, chemiluminescence); type: biochemical; details: microsome fraction 20 μg, arachidonic acid, 37° C. 25 minutes preincubation; read-out: Repression rate IC50 (μM) COX-2
T1 construct: made in house; host or cells: Sf-21 insect cells (recombinant baculovirus BAC-COX2, pFASTBAC1); microsome fraction
T1 sequence (P35354 18-604): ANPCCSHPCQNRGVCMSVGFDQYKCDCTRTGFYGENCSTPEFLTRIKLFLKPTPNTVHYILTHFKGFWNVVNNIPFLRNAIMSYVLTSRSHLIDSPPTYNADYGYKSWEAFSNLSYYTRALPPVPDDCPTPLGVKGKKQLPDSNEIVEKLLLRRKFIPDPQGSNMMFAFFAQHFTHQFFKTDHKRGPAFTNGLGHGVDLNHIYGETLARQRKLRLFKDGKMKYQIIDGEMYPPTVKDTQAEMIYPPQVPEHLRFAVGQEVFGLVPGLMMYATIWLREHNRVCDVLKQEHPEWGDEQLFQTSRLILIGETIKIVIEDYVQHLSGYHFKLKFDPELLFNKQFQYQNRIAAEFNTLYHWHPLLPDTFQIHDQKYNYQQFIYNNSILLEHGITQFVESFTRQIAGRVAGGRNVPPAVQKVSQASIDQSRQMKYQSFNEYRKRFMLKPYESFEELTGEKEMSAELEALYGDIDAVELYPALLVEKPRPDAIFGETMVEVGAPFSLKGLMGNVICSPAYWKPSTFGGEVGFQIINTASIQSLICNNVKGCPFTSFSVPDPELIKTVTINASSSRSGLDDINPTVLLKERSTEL
Description: A 1.8 kb DNA fragment containing human COX-2 cDNA (Proc. Natl. Acad. Sci. U.S.A., vol. 89 (16), p. 7384-7388 (1992)) prepared by the PCR method was inserted into plasmid pFASTBAC1 (CIBCOBRAL) to obtain a plasmid pFBCOX2.
Using the plasmid pFBCOX2 and BAC-TO-BAC Baculovirus Expression System (GIBCOBRAL), a virus stock BAC-COX2 of the recombinant baculovirus was prepared.
Sf-21 cells were inoculated in 125 mL of LSf-900 II SFM medium (GIBCOBRAL) at a concentration of 1×10^6 cells/mL, and the medium was incubated at 27° C. for 24 hours. 0.75 mL of the virus stock BAC-COX2 of the recombinant baculovirus was added thereto, and was incubated further for 72 hours. The cells were separated from the medium by centrifugation (3000 rpm, 10 min), and washed with PBS twice. The cells were suspended in 10 mL of a Lysis buffer (0.1M Tris-HCl (pH 7.4), 5 mM EDTA), and were treated with a homogenizer (POLYTRON), three times at 20000 rpm for 20 seconds so that the cells were crushed. The supernatant thus obtained after centrifugation (2000 rpm, 10 minutes) was further centrifuged (40000 rpm, 45 minutes) to obtain a precipitate, which was resuspended in a Lysis buffer (0.1M Tris-HCl (pH 7.4), 5 mM EDTA), and the suspension was stored at −80° C.
Determination of COX-1 and COX-2 Inhibitory Activities
To a mixture of 20 μL of a reaction buffer previously concentrated 10 times (1M Tris-HCl (pH8.0), 50 mM EDTA, 1.0% Tween 20, 50 mM luminol, 100 μM hematin), 20 μL of the microsome fractions (COX-1: 40 μg, COX-2: 20 μg), and 55 μL of distilled water, a sample compound dissolved in DMF (5 μL) was added, and the mixture was left at 37° C. for 25 minutes. The reaction was started by the addition of 20 μM arachidonic acid (100 μL), and chemiluminescence amount during the 10-second period after the addition of arachidonic acid was determined by the use of Lumistar (BMG Lab technologies, GmbH). The inhibition rate was calculated, regarding that the enzyme activity when DMF ([…]) was added was 100%, and the enzyme activity when 4 mM flurbiprofen (5 μL) was added was 0%.

[1] = system: carrageenin edema of right hind limb plantar; experiment: Anti-inflammatory activity, carrageenin edema method; type: in vivo, SD-rats; details: po
Description: Anti-Inflammatory Activity
Male SD-rats (6 weeks old, CLEA Japan) were used (1 group, n=6). The Carrageenin edema method was performed according to the method of Winter et. al., (Proc. Soc. Exp. Biol. Med., vol. 111, p. 544-547, 1962). After the volume of right hind limb plantar of the rat was determined, a sample was orally administered (1.0 mL, b.w.), and immediately water was orally administered in an amount of 5 mL/rat. Meanwhile, only the solvent of the sample was orally administered to rats in control. After 1 hour, a solution of 1% carrageenin in saline (0.05 mL) was injected into the right hind limb plantar subcutaneously to induce edema. After 2 and 3 hours later from the injection, volumes of the right hind limb plantar were determined. The repression rate (%) of the sample was calculated by comparing the difference of the volumes of the plantar before the carrageenin shot and 2 and 3 hours after the shot between the sample groups and the control groups.

yeast-induced pyrexia = experiment: Antipyretic activity in yeast-induced pyrexia; type: in vivo, SD rats; details: 10 mg/kg orally; maximum difference in body temperature vs control over 6 hours
Description: Antipyretic Activity in Yeast-Induced Pyrexia Antipyretic activity was determined using male SD origin male-rats (7 weeks old, CLEA Japan, 1 group: n=6), according to the method of winter et. al. (J. Pharmacol. Exp. Ther., vol. 138, p. 405, 1963). Before 16 hours from measurement of body temperature, a suspension of 15% yeast in saline was injected subcutaneously (10 mL/kg, b.w.) into the rats to induce fever, and simultaneously supply of food was terminated while water was made available all the time. Each of the rats was raised separately. After 16 hours from the yeast shot, a thermistor terminal was inserted at an about 4 cm depth into rectum every hour, and the body temperatures after 30 seconds were recorded. After 18 hours, rats developing fevers consistently were selected, and a sample was orally administered to the rats (5 mL/kg, b.w.), while to the control, only the solvent was administered. After the administration, body temperatures were measured every hour for a period of 6 hours, and the maximum difference in body temperature between the rats in the sample group and in the control group were determined as Δ (° C.).

[2] = system: mucosa of small intestine; experiment: Disorder of mucosa of small intestine; type: in vivo, SD rats; details: 300 mg/kg orally, freely fed rats, 6 hours after dosing
Description: Disorder of Mucosa of Small Intestine Male SD origin male-rats (7 weeks old, CLEA Japan) were used. To the rats freely fed, samples were administered orally (5 mL/kg, b.w.). After 5.5 hours from the administration, Evan's Blue (0.5% Evan's Blue/saline) was injected (1 mL/rat) intravenously under no anesthesia. After 30 minutes from the shot, the intestine was removed by celiotomy and the area thereof facing mesentery was cut open. After removal of intestinal content, the spots in the intestine dyed by Evan's Blue were measured under a stereomicroscope, and the total length (mm) of the spots was determined by a counter and recorded.

[3] = 10 mg/kg orally, 2 hr after carrageenin injection, read-out: Repression rate (%) Dosage 10 mg/kg 2 hr later
[4] = 10 mg/kg orally, 3 hr after carrageenin injection, read-out: Repression rate (%) Dosage 10 mg/kg 3 hr later

SMILES	IC50 (human COX-2)	inhibition in vivo at 10 mg/kg [1, 3]	inhibition in vivo at 10 mg/kg [1, 4]	Δ (° C.) Dosage 10 mg/kg (yeast-induced pyrexia)	melting point	inhibition in vivo at 10 mg/kg ([1]; 2 h, read-out: Repression rate (%) Dosage 10 mg/kg 2 hr later)	inhibition in vivo at 10 mg/kg ([1]; 3 h, read-out: Repression rate (%) Dosage 10 mg/kg 3 hr later)	Total length of dyed spots (mm) [2]
Cc1nn(-c2ccccn2)c2nc3ccccc3c(OC3CCCC3)c12 [Example 2-21, 4-Cyclopentyloxy-3-methyl-1-(2-pyridinyl)-1H-pyrazolo[3,4-b]quinoline]	86 µM	52%	45%	1.8** ° C.	–	–	–	–
CCCNc1c2ccccc2nc2c1c(C)nn2-c1ccccn1 [Example 2-6, N-[3-Methyl-1-(2-pyridinyl)-1H-pyrazolo[3,4-b]quinolin-4-yl]-N-propylamine]	65.1 µM	43%	35%	0.8** ° C.	121 to 122 °C	–	–	–
Cc1nn(-c2ccccn2)c2[nH]c3cccc(F)c3c(=O)c12.Cl [Example 2-79, 5-Fluoro-3-methyl-1-(2-pyridinyl)-1,9-dihydro-4H-pyrazolo[3,4-b]quinolin-4-one hydrochloride]	3.7 µM	–	–	1.4** ° C.	> 380 °C	37%	33%	0 (300 mg/kg) mm
O=c1c2ccccc2[nH]c2c1cnn2-c1ccccn1 [Example 2-159, 1-(2-Pyridinyl)-1,9-dihydro-4H-pyrazolo[3,4-b]quinolin-4-one]	1.37 µM	50%	39%	1.8** ° C.	240 to 242 °C	–	–	0 (300 mg/kg) mm
CCCOc1c2ccccc2nc2c1c(C)nn2-c1ccccn1 [Example 2-17, 3-Methyl-4-propoxy-1-(2-pyridinyl)-1H-pyrazolo[3,4-b]quinoline]	49.2 µM	45%	37%	1.5** ° C.	–	–	–	0 (300 mg/kg) mm
